Reference: US20060074066A1, “Use of an inhibitor of cathepsin-S or -B to treat or prevent chronic obstructive pulmonary disease” (Yale University, priority 2003, published 2006)
Entries after “also recorded” stand apart in the source; their conditions may differ. Peptide text beside a SMILES is read from it. * marks the point of attachment. Cbz = O=C(OCc1ccccc1)*; CH2F = FC*

Legend:
Assay type in all cases: in vivo
[1] = test system: cathepsins B, S, and H and MMPs-2, 9, 12 and 14; assay: Lung mRNA encoding cathepsins and MMPs (RT-PCR, real-time RT-PCR); details: transgene (+) mice on dox for 2 weeks
CC10-rtTA-IFN-γ mice [2] = assay: IFN-γ-induced emphysema (lung volume, chord length, alveolar histology, compliance) in transgenic mice; details: transgene (+) mice on dox, treated vs vehicle control
Description: (§1) CC10-rtTA-IFN-γ mice that had been generated in our laboratory and bred for at least 10 generations onto a Balb/c background were used in these studies. These are dual transgene positive animals in which the reverse tetracycline transactivator (rtTA) drives the expression of the murine IFN-γ gene in a lung-specific and externally regulatable fashion. The transgene in these mice is activated by adding doxycycline (dox) to the animal's drinking water. These mice were maintained as dual transgene (+) heterozygotes (refered to as transgene (+) hereafter).
(§2) CC10-rtTA-IFN-γ mice and littermate controls were maintained on normal water until they were 4-6 weeks old.
(§3) Animals were sacrificed via cervical dislocation, a median stemotomy was performed, and right heart perfusion was accomplished with calcium- and magnesium-free PBS to clear the pulmonary intravascular space. The lungs were then fixed to pressure (25 cm) with neutral buffered 10% formalin, fixed overnight in 10% formalin, embedded in paraffm, sectioned at 5 μm and stained. Hematoxylin and eosin (H&E) stains were performed in the Research Histology Laboratory of the Department of Pathology at Yale University School of Medicine.
In brief, the trachea was cannulated, the lungs were degassed and the lungs and heart were removed en bloc and inflated with PBS at 25 cm of pressure. The size of the lung was evaluated via volume displacement. Compliance was calculated as the change in volume divided by the change in pressure.

IFN-γ-induced apoptosis = assay: TUNEL evaluation of IFN-γ-induced lung cell apoptosis in transgenic mice; details: transgene (+) mice on dox; for effect on IFN-γ-induced apoptosis (in words): treated vs vehicle control, 14150 10 mg/kg/day by gavage, CA074 10 mg/Kg/day I.P., leupeptin 15 mg/kg I.P.
Description: as §1, §2
End labeling of exposed 3′-OH ends of DNA fragments in paraffin embedded tissue was undertaken with the TUNEL in situ cell death detection kit AP (Roche Diagnostics, CA, USA) using the instructions provided by the manufacturer. After staining, 20 fields of alveoli were randomly chosen and 2000 nuclei were counted. The labeled cells were expressed as percentage of total nuclei.

CC10-rtTA-IFN-γ mice [3] = assay: IFN-γ-induced BAL cell recovery and tissue inflammation; details: transgene (+) mice on dox for 2 weeks
Experimental: Mice were euthanized, the trachea was isolated by blunt dissection, and tubing was secured in the airway. Two volumes of 1 mL of PBS with 0.1% BSA were then instilled and gently aspirated and pooled. Each BAL fluid sample was centriged, and the supernatants were stored in −70° C. until used. The levels of IFN-γ were determined using a commercial ELISA (R&D Systems Inc., Minneapolis, Minn., USA) as per the manufacturer's instructions.
as §3

| Structure (SMILES) | IFN-γ-induced increase in mRNA encoding cathepsin B, cathepsin S and MMPs-2 and -14 [1] | MMP-9 mRNA induction by IFN-γ [1] | effect on IFN-γ-induced emphysema (lung volume, chord length, histology, compliance; in words) (CC10-rtTA-IFN-γ mice [2]) | effect on IFN-γ-induced apoptosis (in words) (IFN-γ-induced apoptosis) | decrease of the levels of IFN-γ-induced apoptosis (IFN-γ-induced apoptosis; Z-VAD-fmk 3 μg/kg/day I.P. vs vehicle control) | IFN-γ-induced BAL total cell, neutrophil, lymphocyte and macrophage alterations and tissue inflammation (CC10-rtTA-IFN-γ mice [3]) | levels of mRNA encoding cathepsin H and MMPs-9 and -12 [1] |
| --- | --- | --- | --- | --- | --- | --- | --- |
| CC(=O)N[C@@H](CC(C)C)C(=O)N[C@@H](CC(C)C)C(=O)N[C@H](C=O)CCCNC(=N)N [leupeptin] | decreased | leupeptin-dependent |  |  |  |  |  |
| CC[C@H](NC(=O)[C@H](CS(=O)(=O)CC(C)C)NC(=O)N1CCOCC1)C(=O)c1nc2ccccc2o1 [compound 14150] |  |  | significant decreases; also recorded: significantly inhibited | significant decreases; also recorded: significantly inhibited |  |  |  |
| CCCNC(=O)[C@H]1O[C@@H]1C(=O)N[C@H](C(=O)N1CCC[C@H]1C(=O)O)[C@@H](C)CC (relative stereo) [CA074, N-(L-3-trans-propylcarbamoyl-oxirane-2-carbonyl)-L-isoleucyl-L-proline] |  |  | significant decreases | significant decreases |  |  |  |
| COC(=O)C[C@H](NC(=O)[C@H](C)NC(=O)[C@@H](NC(=O)OCc1ccccc1)C(C)C)C(=O)CF [Z-VAD-fmk] (Cbz-Val-Ala-Asp(OMe)-CH2F) | markedly ameliorated |  | decreased the emphysema generating effects of IFN-γ; also recorded: only partially abrogated |  | ≥ 85% | markedly ameliorated | not similarly altered |
